Assay results from PubChem BioAssay AID1963968 (Molecular Pharmacology Branch, DTP, NCI, 2024).

Tested on: 945468-187-T-J3-PDC spheroids with HUVEC/MSC, viability
Test: Anticancer human tumor 945468-187-T-J3-PDC patient-derived rectal carcinoma cell line growth inhibition [PI3K]
Conditions: for IC50: curve of first compound; for viability, T/C: stronger effect = lower value
Procedure, shortened: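 Targeted small molecules plus PI3K inhibitors, half-log dose series from Cmax (default top 10 microM), were applied to heterotypic spheroids of cancer cells with HUVEC and MSCs. Viability indicated growth inhibition.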

[1] = second compound 0.00316 µM, first compound 0.0316 µM
[2] = second compound 0.00316 µM, first compound 0.1 µM
[3] = second compound 0.00316 µM, first compound 0.316 µM
[4] = second compound 0.00316 µM, first compound 1 µM
[5] = second compound 0.00316 µM, first compound 3.16 µM
[6] = second compound 0.00316 µM, first compound 10 µM
[7] = second compound 0.01 µM, first compound 0.0316 µM
[8] = second compound 0.01 µM, first compound 0.1 µM
[9] = second compound 0.01 µM, first compound 0.316 µM
[10] = second compound 0.01 µM, first compound 1 µM
[11] = second compound 0.01 µM, first compound 3.16 µM
[12] = second compound 0.01 µM, first compound 10 µM
[13] = second compound 0.0316 µM, first compound 0.0316 µM
[14] = second compound 0.0316 µM, first compound 0.1 µM
[15] = second compound 0.0316 µM, first compound 0.316 µM
[16] = second compound 0.0316 µM, first compound 1 µM
[17] = second compound 0.0316 µM, first compound 3.16 µM
[18] = second compound 0.0316 µM, first compound 10 µM
[19] = second compound 0.1 µM, first compound 0.0316 µM
[20] = second compound 0.1 µM, first compound 0.1 µM
[21] = second compound 0.1 µM, first compound 0.316 µM
[22] = second compound 0.1 µM, first compound 1 µM
[23] = second compound 0.1 µM, first compound 3.16 µM
[24] = second compound 0.1 µM, first compound 10 µM
[25] = second compound 0.316 µM, first compound 0.0316 µM
[26] = second compound 0.316 µM, first compound 0.1 µM
[27] = second compound 0.316 µM, first compound 0.316 µM
[28] = second compound 0.316 µM, first compound 1 µM
[29] = second compound 0.316 µM, first compound 3.16 µM
[30] = second compound 0.316 µM, first compound 10 µM
[31] = second compound 1 µM, first compound 0.0316 µM
[32] = second compound 1 µM, first compound 0.1 µM
[33] = second compound 1 µM, first compound 0.316 µM
[34] = second compound 1 µM, first compound 1 µM
[35] = second compound 1 µM, first compound 3.16 µM
[36] = second compound 1 µM, first compound 10 µM
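Also: spheroids exposed to agents for 7 days before viability read.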
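For viability, T/C in this document: 100% = DMSO vehicle control viability.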

CCCS(=O)(=O)Nc1ccc(F)c(C(=O)c2c[nH]c3ncc(-c4ccc(Cl)cc4)cc23)c1F + COc1c(OCCCN2CCOCC2)ccc2c3n(c(=NC(=O)c4cnc(N)nc4)nc12)CCN3
IC50 (second compound 0.00316 µM): > 10000 nM
IC50 (second compound 0.01 µM): > 10000 nM
IC50 (second compound 0.0316 µM): 7310 nM
IC50 (second compound 0.1 µM): < 31.6 nM
IC50 (second compound 0.316 µM): < 31.6 nM
IC50 (second compound 1 µM): < 31.6 nM
viability, T/C [1]: 106%
viability, T/C [2]: 81%
viability, T/C [3]: 88.9%
viability, T/C [4]: 77.7%
viability, T/C [5]: 87.2%
viability, T/C [6]: 52.3%
viability, T/C [7]: 86.6%
viability, T/C [8]: 77.3%
viability, T/C [9]: 86.2%
viability, T/C [10]: 87.7%
viability, T/C [11]: 95.8%
viability, T/C [12]: 74.2%
viability, T/C [13]: 83.8%
viability, T/C [14]: 89.4%
viability, T/C [15]: 79.1%
viability, T/C [16]: 89.6%
viability, T/C [17]: 86.1%
viability, T/C [18]: 36.7%
viability, T/C [19]: 42.2%
viability, T/C [20]: 48.9%
viability, T/C [21]: 38.2%
viability, T/C [22]: 43.6%
viability, T/C [23]: 28.7%
viability, T/C [24]: 8.36%
viability, T/C [25]: 18.8%
viability, T/C [26]: 20.2%
viability, T/C [27]: 20.1%
viability, T/C [28]: 22.2%
viability, T/C [29]: 20.9%
viability, T/C [30]: 7.04%
viability, T/C [31]: 15.5%
viability, T/C [32]: 16.1%
viability, T/C [33]: 18.2%
viability, T/C [34]: 18.5%
viability, T/C [35]: 15.2%
viability, T/C [36]: 6.57%

C[C@@H](NC(=O)c1ncnc(N)c1Cl)c1ncc(C(=O)Nc2cc(C(F)(F)F)c(Cl)cn2)s1 + COc1c(OCCCN2CCOCC2)ccc2c3n(c(=NC(=O)c4cnc(N)nc4)nc12)CCN3
IC50 (second compound 0.00316 µM): > 10000 nM
IC50 (second compound 0.01 µM): > 10000 nM
IC50 (second compound 0.0316 µM): > 10000 nM
IC50 (second compound 0.1 µM): < 31.6 nM
IC50 (second compound 0.316 µM): < 31.6 nM
IC50 (second compound 1 µM): < 31.6 nM
viability, T/C [1]: 89.2%
viability, T/C [2]: 101%
viability, T/C [3]: 97.1%
viability, T/C [4]: 104%
viability, T/C [5]: 98.4%
viability, T/C [6]: 95.9%
viability, T/C [7]: 118%
viability, T/C [8]: 91.7%
viability, T/C [9]: 101%
viability, T/C [10]: 99.3%
viability, T/C [11]: 94.6%
viability, T/C [12]: 90.3%
viability, T/C [13]: 94.5%
viability, T/C [14]: 101%
viability, T/C [15]: 83.8%
viability, T/C [16]: 95%
viability, T/C [17]: 92%
viability, T/C [18]: 102%
viability, T/C [19]: 34.8%
viability, T/C [20]: 42.1%
viability, T/C [21]: 39%
viability, T/C [22]: 45.5%
viability, T/C [23]: 45.6%
viability, T/C [24]: 51.8%
viability, T/C [25]: 19.7%
viability, T/C [26]: 22.8%
viability, T/C [27]: 19.8%
viability, T/C [28]: 18.2%
viability, T/C [29]: 20.8%
viability, T/C [30]: 21.4%
viability, T/C [31]: 17.3%
viability, T/C [32]: 17.7%
viability, T/C [33]: 17.4%
viability, T/C [34]: 16.1%
viability, T/C [35]: 19%
viability, T/C [36]: 19.9%

Cn1ncnc1[C@H]1c2n[nH]c(=O)c3cc(F)cc(c23)N[C@@H]1c1ccc(F)cc1 + COc1c(OCCCN2CCOCC2)ccc2c3n(c(=NC(=O)c4cnc(N)nc4)nc12)CCN3
IC50 (second compound 0.00316 µM): > 100 nM
IC50 (second compound 0.01 µM): > 100 nM
IC50 (second compound 0.0316 µM): > 100 nM
IC50 (second compound 0.1 µM): < 0.316 nM
IC50 (second compound 0.316 µM): < 0.316 nM
IC50 (second compound 1 µM): < 0.316 nM
viability, T/C (second compound 0.00316 µM, first compound 0.000316 µM): 101%
viability, T/C (second compound 0.00316 µM, first compound 0.001 µM): 90.1%
viability, T/C (second compound 0.00316 µM, first compound 0.00316 µM): 88.8%
viability, T/C (second compound 0.00316 µM, first compound 0.01 µM): 92.6%
viability, T/C [1]: 117%
viability, T/C [2]: 92.8%
viability, T/C (second compound 0.01 µM, first compound 0.000316 µM): 99.3%
viability, T/C (second compound 0.01 µM, first compound 0.001 µM): 91.4%
viability, T/C (second compound 0.01 µM, first compound 0.00316 µM): 97.7%
viability, T/C (second compound 0.01 µM, first compound 0.01 µM): 92.5%
viability, T/C [7]: 101%
viability, T/C [8]: 95.4%
viability, T/C (second compound 0.0316 µM, first compound 0.000316 µM): 98.8%
viability, T/C (second compound 0.0316 µM, first compound 0.001 µM): 93.9%
viability, T/C (second compound 0.0316 µM, first compound 0.00316 µM): 84.2%
viability, T/C (second compound 0.0316 µM, first compound 0.01 µM): 86%
viability, T/C [13]: 89.2%
viability, T/C [14]: 97.6%
viability, T/C (second compound 0.1 µM, first compound 0.000316 µM): 46.5%
viability, T/C (second compound 0.1 µM, first compound 0.001 µM): 55.3%
viability, T/C (second compound 0.1 µM, first compound 0.00316 µM): 40.8%
viability, T/C (second compound 0.1 µM, first compound 0.01 µM): 49.5%
viability, T/C [19]: 42%
viability, T/C [20]: 38.8%
viability, T/C (second compound 0.316 µM, first compound 0.000316 µM): 20.3%
viability, T/C (second compound 0.316 µM, first compound 0.001 µM): 21.3%
viability, T/C (second compound 0.316 µM, first compound 0.00316 µM): 19.4%
viability, T/C (second compound 0.316 µM, first compound 0.01 µM): 22.2%
viability, T/C [25]: 21.2%
viability, T/C [26]: 18.5%
viability, T/C (second compound 1 µM, first compound 0.000316 µM): 14.1%
viability, T/C (second compound 1 µM, first compound 0.001 µM): 15.5%
viability, T/C (second compound 1 µM, first compound 0.00316 µM): 15.3%
viability, T/C (second compound 1 µM, first compound 0.01 µM): 15.7%
viability, T/C [31]: 14.8%
viability, T/C [32]: 12.6%
